The subject of one test is C6-Luc brain tumor. Description: Near infra-red fluorescence whole body imaging of IRDye-conjugated D-peptides in brain tumor-bearing mice. The class given is in vivo, mouse. Particulars: IRDye 800CW conjugates, tail vein, nude mice with C6-Luc brain tumors, IVIS imaging 15 min to 144 h.
The target in test [1] is T1, synthetic human MC16 peptide (ANXA1 N-terminus) (Homo sapiens, UniProt P04083).
T1 construct: chemically synthesized ANXA1 N-terminus (1–15 residues plus a cysteine at 16); purchased Bio-Synthesis (Lewisville, TX); host or cells: chemical synthesis
The test is described as follows: Plate binding assay of biotinylated dTIT7 to MC16-coated wells (streptavidin-peroxidase, A450). Conditions: N-terminal biotinylated dTIT7 added to MC16-coated plastic wells, peroxidase-streptavidin colour reaction, read-out: Kd of dTIT7 bound to WT MC16. As to the method:
To assess dTIT7 binding, wells of Sulfhydryl-BIND Surface Maleimide plates (Corning) were coated 20 hours with wild type (WT) and mutant L-MC16 in water at 4°C. After washing with PBS containing 0.02% Tween 20 (PBST), wells were blocked 1 hour with 10% superblock (Thermo) in PBST at room temperature. Biotinylated dTIT7 (10 μg dissolved in 10% superblock in PBST (1 mL) prepared as above was added to each well at 100 μl/well and incubated 30 min at room temperature for. After three PBST washes, 100 μl streptavidin-peroxidase (0.2 μg/ml) in 10% superblock in PBST containing 2% bovine serum albumin was added to each well and incubated 30 min. After three PBST washes, 100 μL of the peroxidase substrate one-step-TMB (Thermo) was added and incubated until the color developed. The reaction was stopped by adding 100 μl 2N sulfuric acid, and absorbance at 450 nm monitored using an ELISA plate reader. […]
Fig 2 Binding of dTIT7 to an ANXA1 N-terminal domain peptide or to full-length ANXA1 protein. […] In A and B, biotinylated dTIT7 peptide (1 μg/mL) was added to each MC16-coated plastic well and binding of peptide to MC16 was detected by a peroxidase-conjugated streptavidin and peroxidase color reaction. […]

For test [2], the target named is T2, recombinant full-length ANXA1 (Homo sapiens, UniProt P04083).
T2 construct: Recombinant, full-length ANXA1 was expressed using the baculovirus expression system; honeybee melittin signal peptide (N, cleaved yes); His8-tag (N, cleaved yes); made in house; host or cells: Sf9 insect cells (baculovirus), secreted
T2 sequence (P04083 1-346): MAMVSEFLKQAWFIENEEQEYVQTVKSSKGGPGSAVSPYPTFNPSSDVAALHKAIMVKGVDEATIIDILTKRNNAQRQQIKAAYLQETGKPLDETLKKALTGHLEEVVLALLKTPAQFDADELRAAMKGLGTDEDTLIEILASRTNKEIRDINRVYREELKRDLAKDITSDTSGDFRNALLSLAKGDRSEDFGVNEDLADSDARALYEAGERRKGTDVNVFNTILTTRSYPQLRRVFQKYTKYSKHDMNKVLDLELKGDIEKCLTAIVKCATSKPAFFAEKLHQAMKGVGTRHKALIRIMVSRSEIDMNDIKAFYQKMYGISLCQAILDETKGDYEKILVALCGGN
The arrangement: method as in PMID 32921792. Particulars: IF7 with ANXA1; cited from earlier work.

Another test concerns the target T3, Annexin A1 (Homo sapiens, UniProt P04083).
T3 chain: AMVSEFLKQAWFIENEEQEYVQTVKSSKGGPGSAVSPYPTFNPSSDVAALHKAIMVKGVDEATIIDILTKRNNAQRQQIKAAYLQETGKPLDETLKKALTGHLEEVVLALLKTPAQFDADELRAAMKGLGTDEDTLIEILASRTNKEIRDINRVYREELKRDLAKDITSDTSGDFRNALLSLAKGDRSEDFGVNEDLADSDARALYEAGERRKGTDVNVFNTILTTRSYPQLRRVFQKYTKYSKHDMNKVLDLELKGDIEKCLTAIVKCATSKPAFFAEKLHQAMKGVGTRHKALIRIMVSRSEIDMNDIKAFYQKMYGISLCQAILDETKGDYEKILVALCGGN
The test is described as follows: QCM.

Test [3] addresses T4, ANXA1 N-terminal peptide L-MC16 (Homo sapiens).
T4 chain: MAMVSEFLKQAWFIEC
The test is described as follows: plate binding assay (ELISA). On the technique in general: ELISA stands for enzyme-linked immunosorbent assay.

Several values for one entry are separate records, joined by “and”; a condition that tells them apart may be missing. Equal entries are not always repeated. Non-standard residues stand in square brackets, D forms with d. Residues, ends and D or L forms follow the SMILES beside them. No end group written: not given here. *: point of attachment. Biotin = O=C1N[C@H]2[C@H](CS[C@H]2CCCCC(=O)*)N1

Protocol for C6-Luc brain tumor: C6-Luc cells (4.8 x10^4 in 4 μl PBS) were injected into the brain striatum of Balb/c nu/nu mice using a stereotaxic frame as described [20]. […] Five to seven days later, mice underwent imaging for luciferase-expressing tumors. To do so, 100μl luciferin (30 mg/ml PBS) was injected peritoneally, and then mice were anesthetized under isoflurane gas (20 ml/min) supplemented with oxygen (1 ml/min) and placed under a camera equipped with a Xenogen IVIS 200 imager at AIST animal facility. Photon numbers were measured for 1–10 sec or for 1 min.
Peptides were conjugated with IRDye 800CW maleimide (Li-Cor) through the cysteine residue at room temperature for 2 hours according to the manufacturer’s instruction. After reverse-phase HPLC purification, the conjugate was dissolved in DMSO and 6% glucose to a final concentration of 0.2 μM. The C6-Luc brain tumor model mouse was generated in nude mice as described above. When photon number reached 5x10^4, each IRDye-conjugated D-peptide (100 μl) was injected intravenously through the tail vein. Near infra-red fluorescence in the mouse was monitored 15 min after injection using an IVIS system and daily over 6 days.
Whole body imaging of infra-red fluorescence was monitored using an IVIS imager.

As to `CC(C)C[C@@H](N)C(=O)N[C@H](CC(C)C)C(=O)N[C@H](CO)C(=O)N[C@H](Cc1c[nH]c2ccccc12)C(=O)N1CCC[C@@H]1C(=O)N[C@H](CO)C(=O)N[C@H](C)C(=O)O` [dLLS7] (H-[dL][dL][dS][dW][dP][dS][dA]-OH; N-terminus and C-terminus assumed), the “Localization of near infra-red fluorescence after intravenous injection” value (“Localization” below) with C6-Luc brain tumor is “signals in brain, kidney and other organs”.

On to `CSCC[C@@H](N)C(=O)N1CCC[C@@H]1C(=O)N[C@@H](C(=O)N[C@H](CC(C)C)C(=O)N[C@@H](C(=O)N[C@H](Cc1ccccc1)C(=O)N[C@H](CCCNC(=N)N)C(=O)O)[C@H](C)O)[C@H](C)O` [dMPT7] (H-[dM][dP][dT][dL][dT][dF][dR]-OH; N-terminus and C-terminus assumed), for which the “Localization” value in the test on C6-Luc brain tumor is “signals in brain, kidney and other organs”.

For the molecule `CC(C)C[C@@H](NC(=O)[C@@H](CC(C)C)NC(=O)[C@@H](CO)NC(=O)[C@H](NC(=O)[C@H]1CCCN1C(=O)[C@H](N)CO)[C@H](C)O)C(=O)N[C@H](Cc1ccccc1)C(=O)O` [dSPT7] (H-[dS][dP][dT][dS][dL][dL][dF]-OH; N-terminus and C-terminus assumed), in the test on C6-Luc brain tumor, the “Localization” value was “signals in brain, kidney and other organs”.

The Kd is a measure of binding affinity in units of concentration. Consider `CC[C@@H](C)[C@@H](NC(=O)[C@H](N)[C@H](C)O)C(=O)N[C@@H](C(=O)N[C@H](Cc1c[nH]c2ccccc12)C(=O)N1CCC[C@@H]1C(=O)N[C@@H](C(=O)N[C@H](CCSC)C(=O)O)[C@H](C)O)[C@H](C)O` [dTIT7], for which the dissociation constant Kd in test [1] was 8.5 nM and 8.56 nM.

“IFLLWQR (linear all-L peptide; any N-terminal Cys/linker or conjugate left out) [IF7]”: the Kd in test [2] is 63.8 nM.

B1: dLRF7 (peptide)
chain: [dL][dR][dF][dP][dT][dV][dL]
The molecule B1 had a Kd with Annexin A1 of 31.2 nM.

B2: dTIT7 (peptide)
chain: Biotin-[dT][dI][dT][dW][dP][dT][dM]
For the molecule B2, in test [3], binding was characterised by a dissociation constant (Kd) of 8.5 nM.

B3: dTIT7 (peptide)
chain: [dT][dI][dT][dW][dP][dT][dM]
As to B3, in the test with Annexin A1, the Kd was found to be 46.6 nM.
